Assay results taken from patent US20250339409A1, “USES OF PAN BET INHIBITORS” (VYNE THERAPEUTICS INC., priority 2021, published 2025).
Like-named read-outs stand apart in the source and are kept apart here.

Test system: CXCL10, IL17α, IL22, IL36γ, CCL20, SerpinB4 gene expression in Th17 stimulated human skin
Test: Th17 stimulated human skin explants, RT-qPCR of biomarkers
Format: cell-based
Details: for inhibition at 10 µM: Homo sapiens, calculated to Th17 stimulated control, three skin donors
Source text: Human skin biopsy tissue was stimulated to induce a Th17 immuno-phenotype using a method derived from Feghali-Bostwick et al. Induction of a Th17 phenotype in human skin—a mimic of dermal inflammatory diseases, Methods and Protocols, 2, 45 (2019). The pharmacodynamic assay described therein involves a similar paradigm to elicit a Th2 response and is used to evaluate the therapeutic potential of the active compounds (e.g., BETi1; and
Freshly excised healthy human skin tissue from abdominoplasties is defatted, cleaned and sectioned into 7 mm biopsies. The biopsies are placed in Transwell® inserts with the epidermis apical and exposed to air and the dermis submerged in media in the basal chamber. The biopsies are pre-treated overnight at 37° C., 5% CO2 with different compounds and controls added to the media in the basal chamber.
The next day, contents of the basal chamber is replaced with fresh media containing the test compound (listed below) and a stimulation cocktail for either Th2 inflammation (proprietary of service provider cocktail) or Th17 inflammation (mix of antibodies against CD3, CD28, IL-4, IFNγ and recombinant IL-1β, IL-6, IL-21, TGF-β). The biopsies are incubated at 37° C., 5% CO2 for a further 24 hrs.
A list of all the treatments is provided below: • 1. Untreated control (for both stimulations) • 2. Th2 stimulated control • 3. Th17 stimulated control • 4. Th2+BETia at 0.01, 0.04, 0.16, 0.63, 2.50, and 10 μM • 5. Th2+BETi1 at 0.01, 0.04, 0.16, 0.63, 2.50, and 10 μM • 6. Th2+Ruxolitinib at 0.01, 0.04, 0.16, 0.63, 2.50, and 10 μM • 7. Th2+betamethasone valerate 210 μM (equivalent to 0.01%) • 8. Th17+BETia at 10 μM • 9. Th17+BETi1 at 10 μM • 10. Th17+Ruxolitinib at 10 μM • 11. Th17+betamethasone valerate 210 μM (equivalent to 0.01%)
After harvesting, the biopsies are cut in half, and one half is homogenized and used for RNA extraction by standard methods and inflammatory pathways is assessed by RT-qPCR. The ability of BETi1 or BETia to inhibit the activity of up to six biomarkers per stimulation is reported as percent activity calculated to stimulated control and fold change in gene expression calculated to untreated control with respect to Th2 (IL4, IL13, IL31, CCL17, CCL26, CCL2) and Th17 (CXCL10, IL17α, IL22, IL36γ, CCL20, SerpinB4). Statistical analysis is performed on data sets from all 3 donors combined and compares the percent inhibition of each biomarker by each treatment calculated to its respective vehicle.
qPCR values were calculated using the relative quantification approach outlined by Livak, et al (2001) (Section 9, Reference 2). The Ct values (threshold cycle) defined as the fractional cycle number at which the amount of amplified target reaches a fixed threshold, were normalised to the Ct value of an internal biomarker or ‘housekeeping gene’ (GAPDH). The higher limit of detection was set at a Ct value of 40, and any target having not reached Ct by 40 cycles was set to this value. The delta Ct values (dt(Ct)) refers to the Ct of the gene of interest minus the Ct of the internal biomarker. The ddt(Ct) is the dt(Ct) value of the gene minus the average dt(Ct) value of the untreated samples. The ddt(Ct) is converted to power by the equation; =power(2,dt(Ct)). Fold change was calculated as ratio of the power of the gene of interest divided by the average power of the untreated samples. This normalizes the untreated samplers to a value of 1. For the comparison of multiple skin donors, the stimulated samples were normalized to 100% maximum activity (such to normalize variability between different skin donors). Percent activity was calculated as the percent increase or decrease in stimulation compared to the stimulated samples set at 100% maximum activity. Percent change was calculated as: Inhibition=(100−(avg % activity/stimulated)*100). Statistical analysis was performed using One-way ANOVA with Dunnett's Multiple Comparisons (non parametric). […]

## Cn1cc(-c2cccc(O)c2Oc2ccccc2)c2cc[nH]c2c1=O [BETi1]
read-out: % inhibition CXCL10
  inhibition at 10 µM: 95%
read-out: % inhibition IL17α
  inhibition at 10 µM: 99.5%
read-out: % inhibition IL36γ
  inhibition at 10 µM: 95%
Th17-stimulated human skin tissue
  inhibition of IL-17, IL-36 and CXCL10 release relative to vehicle control: greater than 95%
